In PMC3612465 (International Journal of Alzheimer's Disease, 2013):
Where two headings read alike, the source gives them in different places.

How the values were obtained:
Aβ40 [1] = assay: Subchronic (11 days q.d. or 6 days b.i.d.) Aβ lowering in nontransgenic mice; type: in vivo, nontransgenic B6C3F1 mouse
Aβ40, Aβ42 [2] = conditions: TgCRND8, single oral 30 mg/kg, 8 hr after dose
Text: (§1) Plasma and cortex Aβ42 were quantified in select TgCRND8 studies using biotin-4G8 and S-tag G2-11 and 4G8 antibodies.

Aβ40, Aβ42 [3] = tested on: Aβ40, Aβ42; set-up: species or system TgCRND8 mouse; conditions: mouse, in vivo
Text: as §1

Aβ40 [4] = assay: Acute Aβ lowering in nontransgenic B6C3F1 mice; type: in vivo, nontransgenic B6C3F1 mouse; conditions: 3 hr
Aβ40, Aβ42 [5] = tested on: Aβ40, Aβ42; set-up: species or system TgCRND8 mouse; conditions: mouse, in vivo, po, 100 mg/kg
[6] = tested on: HES-1, mATH1, KLF4 gene expression; assay: Notch pathway biomarker gene expression in jejunum (RT-PCR); type: in vivo, nontransgenic B6C3F1 mouse; conditions: nontransgenic mice
Text: The jejunum was harvested, rinsed, and flash frozen in liquid nitrogen until later analyses. RNA was isolated from tissues using the Trizol reagent (Molecular Research Center, Inc.) followed by purification over an RNAeasy column (Qiagen).
RNA was purified over an RNAeasy column.

Aβ40 [7] = conditions: rat, single oral dose 10-100 mg/kg, 3 hr
[8] = tested on: Aβ; Notch-related toxicity; set-up: method as in PMID 21190552; conditions: 7 days of b.i.d. dosing, cited from earlier work

Row | Compound | dose giving 50% lowering of cortical Aβ (Aβ40 [1]; nontransgenic mice, 11 days q.d. and 6 days b.i.d.) | increase in Aβ in the cortex (Aβ40 [1]; nontransgenic mice, 11 days q.d. and 6 days b.i.d., 3-100 mg/kg) | continuous inhibition of Aβ with q.d. dosing (Aβ40 [1]; q.d. dosing (100 mg/kg), without Notch-related side effects) [%] | cortex Aβ40 lowering (Aβ40, Aβ42 [2]) [%] | cortex Aβ42 lowering (Aβ40, Aβ42 [2]) [%] | cortex Aβ40 reduction (Aβ40, Aβ42 [3]) [%] | cortex Aβ42 reduction (Aβ40, Aβ42 [3]) [%] | cortex Aβ reduction (Aβ40, Aβ42 [3]) [%] | reduction of Aβ at partial inhibition dose (Aβ40, Aβ42 [3]) | cortex Aβ lowering (Aβ40 [4]; single oral 100 mg/kg) | cortex Aβ lowering (Aβ40 [4]; single oral 10, 30 and 100 mg/kg, P < 0.005) | cortex Aβ40 reduction (Aβ40, Aβ42 [5]) [%] | cortex Aβ42 reduction (Aβ40, Aβ42 [5]) [%] | mATH1 expression in the jejunum ([6]; 100 mg/kg 6 days b.i.d., P < 0.04) | HES-1 expression in the jejunum ([6]; 100 mg/kg, 11 days q.d. and 6 days b.i.d., P < 0.02) | KLF4 expression in the jejunum ([6]; 30 and 100 mg/kg 6 days b.i.d., P < 0.04) | mATH1 and KLF expression in the jejunum ([6]; 11 day q.d. groups) | cortex Aβ40 reduction (plateau) (Aβ40 [7]) | lowering of Aβ ([8]; sustained but incomplete) | Notch-related toxicity (thymus weight, goblet cell hyperplasia in the ileum) [8]
1 | O=C(OC1([C@H]2CCC[C@@H](c3cc(F)cc(F)c3)N2S(=O)(=O)c2ccc(Cl)cc2)CC1)N1CCN(CCO)CC1 (relative stereo) [SCH 697466, 1-[cis-1-[(4-chlorophenyl)sulfonyl]-6-(3,5-difluorophenyl)-2-piperidinyl]cyclopropyl 4-(2-hydroxyethyl)-1-piperazinecarboxylate] | around 30 mg/kg | no evidence of an increase | > 80 | 82 | 42 | 98 | 66 | 48 | ~ 50% | Near complete lowering | significant lowering | 55 | 47 | increased expression | significant decreases | increased expression | unchanged | about 60% |  | 
2 | O=S(=O)(c1ccc(Cl)cc1)N1[C@@H]2CCC[C@H]1c1cn[nH]c1C2 [ELN 475516] |  |  |  |  |  |  |  |  |  |  |  |  |  |  |  |  |  |  | ~ 74% | no evidence of Notch-related toxicity
